What was measured:
DIPGX29 [1] = H3.3 K27M diffuse intrinsic pontine glioma line; experiment: EC50 (inflection of fitted growth-inhibition curve) (log10 M)
Outline: (§1)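 Compounds were delivered by pin tool as a 10-point threefold dilution series with a mean top concentration of 35 μM, in triplicate, to patient-derived pHGG/DIPG cell lines and astrocyte controls growing on 1% Geltrex-coated 384-well plates. Incubation lasted 7 days, or 3 days for iAstro, at 37 °C with 5% CO2. EC50 and maximal response (yFin) come from the three- or four-parameter log-logistic fit with the lowest AICc, applied to pooled, log2-transformed CellTiter-Glo luminescence normalised per plate to % activity between solvent (negative) and positive control wells.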

DIPGX37 [2] = H3.3 K27M diffuse intrinsic pontine glioma line; experiment: as above
Outline: as §1

DIPGX29 [3] = experiment: maximal growth inhibition (yFin) relative to DMSO / staurosporine; higher = more efficacious
Outline: as §1

DIPGX37 [4] = experiment: as above
Outline: as §1

DIPGX29 [5] = experiment: area under dose-response curve of % growth inhibition (log2 RLU vs DMSO / staurosporine), 1e-11 to 1e-4 M (% x log10 M); higher = more growth inhibition
Outline: (§2)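 Area under the curve was derived with the trapezoid rule from a fitted log-logistic curve, switching to a smoothing spline if the sigmoid fit failed. It rested on per-plate % activity between solvent and positive controls, calculated from log2-transformed CellTiter-Glo luminescence after 7 days of exposure (3 days for iAstro) at 37 °C, 5% CO2. Patient-derived pHGG/DIPG lines and astrocytes on 1% Geltrex-coated 384-well plates received a 10-point threefold dilution series, mean top concentration 35 μM, in triplicate.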

DIPGX37 [6] = experiment: as above
Outline: as §2

HGGX39 [7] = paediatric high-grade glioma line; experiment: as above
Outline: as §2

HGGX6 [8] = H3.3 G34R paediatric high-grade glioma line; experiment: as above
Outline: as §2

HGGX39 [9] = experiment: EC50 (inflection of fitted growth-inhibition curve) (log10 M)
Outline: as §1

HGGX6 [10] = experiment: as above
Outline: as §1

HGGX39 [11] = experiment: maximal growth inhibition (yFin) relative to DMSO / staurosporine; higher = more efficacious
Outline: as §1

HGGX6 [12] = experiment: as above
Outline: as §1

| SMILES | EC50 (log10 M) (DIPGX29 [1]) | EC50 (log10 M) (DIPGX37 [2]) | maximal growth inhibition (DIPGX29 [3]) [%] | maximal growth inhibition (DIPGX37 [4]) [%] | area under dose-response curve (DIPGX29 [5]) | area under dose-response curve (DIPGX37 [6]) | area under dose-response curve (HGGX39 [7]) | area under dose-response curve (HGGX6 [8]) | EC50 (log10 M) (HGGX39 [9]) | EC50 (log10 M) (HGGX6 [10]) | maximal growth inhibition (HGGX39 [11]) [%] | maximal growth inhibition (HGGX6 [12]) [%] |
| --- | --- | --- | --- | --- | --- | --- | --- | --- | --- | --- | --- | --- |
| Cc1nn(C)c(COc2ccc(N3CCN(S(=O)(=O)N(C)C)CC3)cc2)c1-c1cccc2c(CCCOc3cccc4ccccc34)c(C(=O)O)n(CCN3CCOCC3)c12 | -4.9 | -4.73 | 92.1 | 110 | 81.7 | 79.7 | 0 | 4.05 |  |  |  |  |
| Nc1nccc2c1ncn2[C@@H]1C=C(CO)[C@@H](O)[C@H]1O [3-DEAZANEPLANOCIN] | -7.53 |  | 21.5 |  | 76 | 16.8 | 33.5 | 36.5 |  |  |  |  |
| CC(C)(C)C(=O)OCOP(=O)(COCCn1cnc2c(N)ncnc21)OCOC(=O)C(C)(C)C [ADEFOVIR DIPIVOXIL] |  | -5.54 |  | 34.3 | 25.6 | 53.7 | 36.5 | 22.2 | -5.71 | -5.06 | 21.4 | 20.9 |
| CCCSc1ccc2[nH]c(NC(=O)OC)nc2c1 [ALBENDAZOLE] |  | -6.1 |  | 28.7 | 33.5 | 60.2 | 66 | 28.7 | -6.13 | -5.18 | 32 | 23 |
| C[C@H]1[C@H](OC(=O)CCC(=O)O)O[C@@H]2O[C@@]3(C)CC[C@H]4[C@H](C)CC[C@@H]1[C@@]24OO3 [ARTESUNATE] |  |  |  |  | 8.84 | 9.88 | 29 | 23.5 | -4.94 | -5.03 | 32.5 | 22.2 |
| CC(C)c1c(C(=O)Nc2ccccc2)c(-c2ccccc2)c(-c2ccc(F)cc2)n1CC[C@@H](O)C[C@@H](O)CC(=O)O [ATORVASTATIN] |  | -6.26 |  | 22 | 48 | 66.2 | 108 | 55.5 | -5.24 | -4.88 | 84.1 | 55.1 |
| c1ccc(-c2ccc(C(c3ccccc3)n3ccnc3)cc2)cc1 (configuration not stated) [BIFONAZOLE] |  | -4.75 |  | 42.4 | 17.3 | 31.9 | 30.5 | 16.4 |  | -4.81 |  | 20.1 |
| COc1cc2nccc(Oc3ccc(NC(=O)C4(C(=O)Nc5ccc(F)cc5)CC4)cc3)c2cc1OC [CABOZANTINIB] |  |  |  |  | 10.6 | 12.8 | 37.5 | 33 | -4.62 | -4.79 | 60.2 | 27.1 |
| Nc1nc(Cl)nc2c1ncn2[C@@H]1O[C@H](CO)[C@@H](O)[C@@H]1F [CLOFARABINE] |  | -5.4 |  | 28.4 | 52.4 | 47 | 44.4 | 40.9 |  | -5.65 |  | 22.7 |
| Cc1nc2c([nH]1)-c1ccccc1N(C(=O)c1ccc(NC(=O)c3ccccc3-c3ccccc3)cc1)CC2 [CONIVAPTAN] | -4.73 | -4.59 | 26.5 | 36 | 29.9 | 35.9 | 60.9 | 6.44 | -4.73 |  | 83.9 |  |
| O=c1[nH]c(=O)n([C@H]2C[C@H](O)[C@@H](CO)O2)cc1F [FLOXURIDINE] | -5.39 |  | 30 |  | 46.2 | 18.8 | 26.8 | 23.5 |  |  |  |  |
| CC(C)n1c(/C=C/C(O)CC(O)CC(=O)O)c(-c2ccc(F)cc2)c2ccccc21 (configuration not stated) [FLUVASTATIN] |  |  |  |  | 25.5 | 1.43 | 51.2 | 54 | -6.08 | -5.92 | 23.9 | 26.8 |
| Nc1ccn([C@@H]2O[C@H](CO)[C@@H](O)C2(F)F)c(=O)n1 [GEMCITABINE] | -8.08 |  | 20.3 |  | 81.9 | 83.9 | 68.9 | 54.2 |  |  |  |  |
| CCNc1nc(Nc2cc(F)c(C(=O)N3CCOCC3)cc2OC)ncc1C(F)(F)F [GNE-7915] | -4.82 |  | 28.7 |  | 23.5 | 15.9 | 29.7 | 21.1 | -4.79 |  | 38.7 |  |
| Cc1cc(C)c(S(=O)(=O)N(Cc2ccc(-c3cccc(S(C)(=O)=O)c3)cc2)Cc2ccc(C(F)(F)F)o2)c(C)c1 [GSK-2033] | -5.05 |  | 87.3 |  | 89 | 22.5 | 0 | 30.1 |  |  |  |  |
| COc1cc2c(cc1-c1c(C)noc1C)ncc1[nH]c(=O)n([C@H](C)c3ccccn3)c12 [I-BET151] | -5.05 | -5.65 | 21.8 | 25.8 | 31.6 | 43.5 | 47.5 | 37.1 | -5.03 |  | 45 |  |
| CC(=O)N1c2ccc(-c3ccc(C(=O)O)cc3)cc2[C@H](Nc2ccc(Cl)cc2)C[C@@H]1C [I-BET726] | -5.48 | -6.37 | 30 | 37.1 | 43 | 79.4 | 55.9 | 44.5 | -5.73 |  | 37.7 |  |

| SMILES | EC50 (log10 M) (DIPGX29 [1]) | EC50 (log10 M) (DIPGX37 [2]) | maximal growth inhibition (DIPGX29 [3]) [%] | maximal growth inhibition (DIPGX37 [4]) [%] | area under dose-response curve (DIPGX29 [5]) | area under dose-response curve (DIPGX37 [6]) | area under dose-response curve (HGGX39 [7]) | area under dose-response curve (HGGX6 [8]) | EC50 (log10 M) (HGGX39 [9]) | EC50 (log10 M) (HGGX6 [10]) | maximal growth inhibition (HGGX39 [11]) [%] | maximal growth inhibition (HGGX6 [12]) [%] |
| --- | --- | --- | --- | --- | --- | --- | --- | --- | --- | --- | --- | --- |
| CC[C@H](C)C(=O)O[C@H]1C[C@@H](C)C=C2C=C[C@H](C)[C@H](CC[C@@H]3C[C@@H](O)CC(=O)O3)[C@H]21 [LOVASTATIN] |  | -5.76 |  | 23.7 | 29.8 | 36.7 | 94.8 | 29.1 | -5.37 | -5.49 | 68 | 21.5 |
| S=c1[nH]cnc2nc[nH]c12 [MERCAPTOPURINE] | -6.35 |  | 20.5 |  | 44.1 | 38 | 28 | 25.5 |  | -5.3 |  | 21.1 |
| CCCCOc1cc(C(=O)OCCN(CC)CC)ccc1N [OXYBUPROCAINE] |  |  |  |  | 11.5 | 16.5 | 65.7 | 29.7 | -4.97 | -5.11 | 67.2 | 26.6 |
| C#CCC(Cc1cnc2nc(N)nc(N)c2n1)c1ccc(C(=O)N[C@@H](CCC(=O)O)C(=O)O)cc1 (some centres not stated) [PRALATREXATE] |  |  |  |  | 66.7 | 73 | 116 | 83.2 | -8.55 | -7.84 | 25.5 | 22.1 |
| CCCCOc1ccc(OCCCN2CCOCC2)cc1 [PRAMOXINE] |  | -4.83 |  | 55.5 | 17.3 | 46.2 | 70.5 | 23.2 | -4.82 | -4.97 | 77 | 23.9 |
| CC(C)c1nc(N(C)S(C)(=O)=O)nc(-c2ccc(F)cc2)c1/C=C/[C@@H](O)C[C@@H](O)CC(=O)O [ROSUVASTATIN] |  | -5.85 |  | 22.7 | 25.2 | 37.5 | 83.4 | 30.4 | -5.45 | -5.54 | 61.4 | 21.2 |
| N#CC[C@H](C1CCCC1)n1cc(-c2ncnc3[nH]ccc23)cn1 [RUXOLITINIB] |  |  |  |  | 24.4 | 44.2 | 44.9 | 28.9 | -5.58 | -5.22 | 27.7 | 21.7 |
| O=C(/C=C\n1cnc(-c2cc(C(F)(F)F)cc(C(F)(F)F)c2)n1)NNc1cnccn1 [SELINEXOR] |  |  |  |  | 144 | 169 | 195 | 205 | -6.06 | -5.23 | 96.2 | 101 |
| Cn1cnc2c(F)c(Nc3ccc(Br)cc3Cl)c(C(=O)NOCCO)cc21 [SELUMETINIB] | -4.87 | -4.93 | 34.5 | 83.2 | 52.5 | 96 | 14.2 | 26.8 |  |  |  |  |
| CCC(C)(C)C(=O)O[C@H]1C[C@@H](C)C=C2C=C[C@H](C)[C@H](CC[C@@H]3C[C@@H](O)CC(=O)O3)[C@H]21 [SIMVASTATIN] |  |  |  |  | 29.8 | 39.1 | 63.6 | 24.4 | -4.94 | -5.07 | 53.9 | 22.6 |
| Nc1ncnc2c1ncn2[C@@H]1O[C@H](C[C@@H](N)CC[C@H](N)C(=O)O)[C@@H](O)[C@H]1O [SINEFUNGIN] | -5.35 |  | 21.5 |  | 29 | 0 | 0 | 4.01 |  |  |  |  |
| CCc1c2c(nc3ccc(O)cc13)-c1cc3c(c(=O)n1C2)COC(=O)[C@]3(O)CC [SN-38] |  | -6.02 |  | 49 | 68.7 | 125 | 167 | 65.4 | -6.74 | -6.77 | 46.5 | 23.2 |
| Nc1nc2[nH]cnc2c(=S)[nH]1 [THIOGUANINE] | -5.83 | -5.44 | 35.6 | 60.4 | 59.5 | 89.3 | 33.7 | 21.6 | -5.68 |  | 22.1 |  |
| O=C(NCC1(c2nc(-c3ccccc3)cs2)CCOCC1)c1cccc(-c2noc(C(F)(F)F)n2)c1 [TMP269] |  | -4.89 |  | 44.2 | 28 | 53.7 | 22.7 | 27.4 | -4.9 | -4.93 | 25.1 | 21 |
| CCC(COC(=O)c1cc(OC)c(OC)c(OC)c1)(c1ccccc1)N(C)C (configuration not stated) [TRIMEBUTINE] |  | -5.38 |  | 25.6 | 28.3 | 35.6 | 60.1 | 19.8 | -5.08 | -4.87 | 55.5 | 22.6 |
| C=C[C@]1(C)C[C@@H](OC(=O)CSC(C)(C)CNC(=O)[C@H](N)C(C)C)[C@]2(C)[C@H](C)CC[C@]3(CCC(=O)[C@H]32)[C@@H](C)[C@@H]1O [VALNEMULIN] | -4.85 | -4.79 | 55.5 | 30.2 | 59.9 | 24 | 42.1 | 12 | -5.56 |  | 30.5 |  |
